Experimental data from patent US20070179161A1, “Pyrazolopyrimidine compounds and their use in medicine” (VERNALIS (CAMBRIDGE) LIMITED., priority 2003, published 2007).
pIC50: −log10 of the molar value. Structures can show the parent of a compound that is named as a salt.

Tests used:
Type in all cases: biochemical
GST-Chk1 enzyme = target: T1, GST-Chk1 enzyme (Homo sapiens, UniProt O14757); test: Chk1 kinase inhibition assay (33P phosphorylation of Chktide, filter plate); settings: 0.01 mM ATP, 11 nM GST-Chk1, 40 minutes at 30° C.; read-out: Chk1 IC50
T1 sequence (O14757 1-476): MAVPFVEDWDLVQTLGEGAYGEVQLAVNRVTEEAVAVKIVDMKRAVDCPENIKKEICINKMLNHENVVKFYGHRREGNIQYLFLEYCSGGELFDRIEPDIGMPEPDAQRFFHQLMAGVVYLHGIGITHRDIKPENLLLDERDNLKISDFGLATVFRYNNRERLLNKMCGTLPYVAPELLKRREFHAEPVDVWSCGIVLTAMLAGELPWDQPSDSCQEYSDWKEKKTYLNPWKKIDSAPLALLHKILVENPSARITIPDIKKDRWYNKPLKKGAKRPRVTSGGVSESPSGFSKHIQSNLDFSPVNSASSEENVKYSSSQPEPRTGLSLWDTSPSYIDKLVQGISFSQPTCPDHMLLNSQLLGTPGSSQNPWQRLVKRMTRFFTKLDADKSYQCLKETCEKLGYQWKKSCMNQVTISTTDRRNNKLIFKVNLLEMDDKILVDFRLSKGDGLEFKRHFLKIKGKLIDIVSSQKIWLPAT
How it was run: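 Inhibitor and enzyme reacted 40 min at 30 °C, then stopped with 50 mM phosphoric acid. Phosphorylated peptide captured on filter plates and quantified by scintillation counting.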

PDK1 enzyme = target: T2, PDK1 enzyme (Homo sapiens, UniProt O15530); test: PDK1 kinase inhibition assay (33P phosphorylation of synthetic peptide, filter plate); settings: 0.01 mM ATP, 60 min at 30° C.; read-out: PDK1 IC50
T2 sequence (O15530 1-556): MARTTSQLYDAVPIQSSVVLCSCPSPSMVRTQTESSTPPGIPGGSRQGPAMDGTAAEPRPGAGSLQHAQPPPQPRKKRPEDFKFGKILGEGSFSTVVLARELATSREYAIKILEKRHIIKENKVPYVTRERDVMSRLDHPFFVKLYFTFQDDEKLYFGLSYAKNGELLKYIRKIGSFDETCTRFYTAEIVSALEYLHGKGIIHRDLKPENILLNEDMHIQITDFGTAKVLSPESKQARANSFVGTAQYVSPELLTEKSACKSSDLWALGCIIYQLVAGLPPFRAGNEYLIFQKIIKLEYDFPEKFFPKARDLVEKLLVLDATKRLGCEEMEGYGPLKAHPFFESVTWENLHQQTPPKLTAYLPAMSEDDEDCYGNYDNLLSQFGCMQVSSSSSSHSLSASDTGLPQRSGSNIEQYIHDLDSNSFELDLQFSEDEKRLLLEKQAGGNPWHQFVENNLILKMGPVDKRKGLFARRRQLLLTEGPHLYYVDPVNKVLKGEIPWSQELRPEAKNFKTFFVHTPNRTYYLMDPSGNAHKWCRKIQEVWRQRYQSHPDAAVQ
How it was run: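 PDK1 and inhibitor incubated 60 min at 30° C with 0.01 mM ATP plus 33P-γ-ATP, 0.075 mM peptide, 7.5 mM Mg acetate, 0.1 mg/ml BSA in 0.05 M Tris.HCl pH 7.5. Stopped with phosphoric acid; phosphorylated peptide captured on filter plate and counted by scintillation.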

[1] = target: CDK-2 enzyme, complexed with cyclin A (Homo sapiens, UniProt P24941); test: CDK2 enzyme inhibition assay (33P phosphorylation of peptide […], filter plate); settings: CDK-2/cyclin A, 0.1 mM ATP, 40 min at 30° C.
How it was run: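 Cyclin A–complexed CDK2 (0.4 U/ml) incubated with inhibitor, 0.03 mM peptide, 0.1 mM ATP plus 33P-γ-ATP in HEPES pH 7.5, 7.5 mM Mg acetate, 0.1 mg/ml BSA, 40 min at 30 °C. Stopped with phosphoric acid; phosphorylated peptide captured on filter plates and counted by scintillation.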

| Structure (SMILES) | pIC50 (GST-Chk1 enzyme) | pIC50 (PDK1 enzyme) | pIC50 [1] |
| --- | --- | --- | --- |
| CS(=O)(=O)c1ccc(Nc2cc(Cl)nc3c(Cc4ccccc4)cnn23)cc1 [Example 23] | < 3.70 | < 3.70 | < 3.70 |
| CC(C)c1cnn2c(Nc3ccc(S(=O)(=O)N(C)C)cc3)cc(C(=O)NCCN)nc12 [Example 118] | 4.43 | < 3.70 | 5.17 |
| CC(C)COc1cc(Nc2ccc(S(C)(=O)=O)cc2)n2ncc(C(C)C)c2n1 [Example 41] | < 3.70 | < 3.70 | 5.92 |
| CC(C)c1cnn2c(Nc3ccc(S(=O)(=O)N(C)C)cc3)cc(NCC(C)(C)CN(C)C)nc12 [Example 106] | 4.74 | 4.84 | 5.48 |
| CC(C)c1cnn2c(Nc3ccc(S(=O)(=O)N(C)C)cc3)cc(N3CCCCC3)nc12 [Example 50] | < 3.70 | < 3.70 | 6.00 |
| CC(C)c1cnn2c(Nc3ccc(S(C)(=O)=O)nc3)cc(N[C@H]3CC[C@H](N)CC3)nc12 [Example 107] | 4.71 | 4.02 | 7.00 |
| CCOC(=O)c1cc(Nc2ccc(S(=O)(=O)N(C)C)cc2)n2ncc(C(C)C)c2n1 [Example 112] | < 3.70 | < 3.70 | 6.56 |
| CC(C)COc1cc(Nc2ccc(S(=O)(=O)N(C)C)cc2)n2ncc(C(C)C)c2n1 [Example 40] | < 3.70 | < 3.70 | 5.93 |
| CC(C)c1cnn2c(Nc3ccc(S(=O)(=O)NCCO)cc3)cc(Cl)nc12 [Example 37] | < 3.70 | < 3.70 | 5.82 |
| CCCN(CCC)[C@H]1CC[C@H](Nc2cc(Nc3ccc(S(=O)(=O)N(C)C)cc3)n3ncc(C(C)C)c3n2)CC1 [Example 125] | 4.69 | 4.70 | 6.81 |
| CC(C)c1cnn2c(Nc3ccc(S(=O)(=O)N(C)C)cc3)cc(OC3CCCN(C)C3)nc12 (stereo not drawn) [Example 75] | 5.20 | < 3.70 | 6.58 |
| Fc1ccc(Nc2cc(-c3ccccc3)nc3ccnn23)cc1 [Example 1, 5-Phenyl-7-(4-fluorophenylamino)pyrazolo[1,5-a]pyrimidine hydrochloride] | < 3.70 | < 3.70 | 5.22 |
| CC(C)c1cnn2c(Nc3ccc(S(=O)(=O)NCCN(C)C)cc3)cc(OC3CCCCC3)nc12 [Example 91] | 5.27 | < 3.70 | 6.06 |
| CCN(CC)c1cc(Nc2ccc(S(=O)(=O)N(C)CCO)cc2)n2ncc(C(C)C)c2n1 [Example 51] | < 3.70 | < 3.70 | 6.59 |
| CC(C)c1cnn2c(Nc3ccc(S(C)(=O)=O)cc3)cc(N(C)CCO)nc12 [Example 59] | < 3.70 | < 3.70 | 6.11 |
| CC(C)c1cnn2c(Nc3ccc(S(=O)(=O)N(C)C)cc3)cc(N3CCCC(CO)C3)nc12 (stereo not drawn) [Example 49] | < 3.70 | < 3.70 | 6.41 |
| CC(C)c1cnn2c(Nc3ccc(S(=O)(=O)N(C)C)cc3)cc(O[C@H]3CC[C@H](N)CC3)nc12 [Example 114] | 5.46 | 3.90 | 7.77 |
| CC(C)c1cnn2c(Nc3ccc(S(=O)(=O)N4CCC(O)CC4)cc3)cc(Cl)nc12 [Example 33] | < 3.70 | < 3.70 | 6.57 |
| CC(C)c1cnn2c(Nc3ccc(S(=O)(=O)N(C)CCN(C)C)cc3)cc(Cl)nc12 [Example 60] | < 3.70 | < 3.70 | 7.40 |
| CC(C)c1cnn2c(Nc3ccc(S(=O)(=O)N(C)C)cc3)cc(N3CCCC3CO)nc12 (stereo not drawn) [Example 104] | < 3.70 | < 3.70 | 6.75 |
| CCN(CC)c1cc(Nc2ccc(S(=O)(=O)N(C)C)cc2)n2ncc(C(C)C)c2n1 [Example 71] | < 3.70 | < 3.70 | 6.18 |
| CC(C)c1cnn2c(Nc3ccc(S(=O)(=O)N(C)C)cc3)cc(N3CCC(CN)CC3)nc12 [Example 95] | 4.60 | 4.19 | 5.73 |
| CC(C)c1cnn2c(Nc3ccc(S(=O)(=O)N4CCCC4)cc3)cc(N[C@H]3CC[C@H](N)CC3)nc12 [Example 62] | 5.49 | 5.92 | 7.62 |
| CC(C)c1cnn2c(Nc3ccc(S(=O)(=O)N(C)C)cc3)cc(N3CCC(CN(C)C)CC3)nc12 [Example 105] | < 3.70 | < 3.70 | 5.22 |
| N[C@H]1CC[C@H](Nc2cc(Nc3ccc(Oc4ccccc4)cc3)n3ncc(Cl)c3n2)CC1 [Example 187] | 5.70 | 5.70 | 7.27 |

Now from value to compound:

| pIC50 (GST-Chk1 enzyme) | pIC50 (PDK1 enzyme) | pIC50 [1] | Structure (SMILES) |
| --- | --- | --- | --- |
| 4.89 | 5.05 | 6.85 | CC(C)c1cnn2c(Nc3ccc(S(=O)(=O)N(C)C)cc3)cc(N[C@H]3CC[C@H](NC(N)=O)CC3)nc12 [Example 141] |
| 5.99 | 6.75 | 7.66 | CN(C)S(=O)(=O)c1ccc(Nc2cc(N[C@H]3CC[C@H](N)CC3)nc3c(C4CC4)cnn23)cc1 [Example 128] |
| < 3.70 | < 3.70 | 5.50 | CCNc1cc(Nc2ccc(S(=O)(=O)N(C)C)cc2)n2ncc(C(C)C)c2n1 [Example 108] |
| < 3.70 | < 3.70 | 6.72 | CC(C)c1cnn2c(Nc3ccc(S(=O)(=O)NCC4CCCO4)cc3)cc(Cl)nc12 (stereo not drawn) [Example 35] |
| 4.37 | < 4.30 | 7.09 | CN(C)CCNS(=O)(=O)c1ccc(Nc2cc(Cl)nc3c(Br)cnn23)cc1 [Example 135] |
| < 3.70 | 4.46 | 7.14 | CC(C)c1cnn2c(Nc3ccc(S(=O)(=O)N(C)C)cc3)cc(N[C@H]3CC[C@H](NS(C)(=O)=O)CC3)nc12 [Example 126] |
| 5.70 | 4.89 | 6.32 | CC(C)c1cnn2c(Nc3ccc(S(=O)(=O)N(C)C)cc3)cc(NC3CCC(N)C3)nc12 (stereo not drawn) [Example 150] |
| 6.01 | < 4.30 | 6.25 | CN(C)S(=O)(=O)c1ccc(Nc2cc(N[C@@H]3CCCC[C@@H]3N)nc3c(Br)cnn23)cc1 [Example 138] |
| < 3.70 | < 3.70 | 7.52 | CC(C)c1cnn2c(Nc3ccc(S(=O)(=O)N(C)C)cc3)cc(N[C@H]3CC[C@H](NC(=O)CN(C)C)CC3)nc12 [Example 86] |
| 6.02 | 5.16 | 6.89 | CC(C)c1cnn2c(Nc3ccc(S(=O)(=O)N(C)CCN(C)C)cc3)cc(N[C@H]3CC[C@H](N)CC3)nc12 [Example 99] |
| 7.15 | 5.59 | 6.82 | N[C@H]1CC[C@@H](Nc2cc(Nc3ccc(S(=O)(=O)N4CCCC4)cc3)n3ncc(Br)c3n2)CC1 [Example 178] |
| 4.77 | 5.67 | 4.77 | CC1(C)CC(Nc2cc(Nc3ccc(S(=O)(=O)Nc4nccs4)cc3)n3ncc(Br)c3n2)CC(C)(C)N1 [Example 166] |
| < 3.70 | 4.61 | 6.23 | O=S(=O)(Nc1nccs1)c1ccc(Nc2cc(OC3CCCCC3)nc3ccnn23)cc1 [Example 14] |
| 4.72 | 4.50 | 6.74 | CC(C)c1cnn2c(Nc3ccc(S(=O)(=O)N(C)C)cc3)cc(NC3CCN(C)CC3)nc12 [Example 69] |
| < 3.70 | 5.33 | 7.52 | CNS(=O)(=O)c1ccc(Nc2cc(N[C@H]3CC[C@H](N)CC3)nc3c(C(C)C)cnn23)cc1 [Example 67] |
| 5.58 | 5.61 | 7.16 | CCc1cnn2c(Nc3ccc(S(=O)(=O)N(C)C)cc3)cc(N[C@H]3CC[C@H](N)CC3)nc12 [Example 57] |
